By MIC is commonly meant the lowest concentration that inhibits growth of the organism.

In assay [1] the target is T1, S. aureus sortase A (Staphylococcus aureus, UniProt Q2FV99).
T1 construct: expressed with an N-terminal deletion of 59 amino acid residues (SrtAΔNS9, residues 60-206); made in house
Put plainly: SrtA enzyme FRET inhibition assay (recombinant sortase A, FRET peptide substrate with LPETG motif). As to conditions: SrtA inhib. concentration, means ±SD (n = 5). The format is biochemical. An excerpt:
The catalytically active recombinant sortase A enzyme used for these studies was expressed with an N-terminal deletion of 59 amino acid residues (SrtAΔNS9, residues 60-206). The first step included high-throughput screening of potent S. aereus SrtA inhibitors and selection of new antibacterial substances as sortase A inhibitors. In order to identify potent inhibitors of S. aureus sortase A, a high-throughput screening (HTS) of a diverse library of 50,000 drug-like low-molecular weight molecules was performed, which led to the identification of novel promising drug candidates.
(§1) These assays included determination of 50% SrtA inhibition concentration (IC50) of the newly synthesized derivative in dose-response experiments using the recombinant sortase A enzyme incubated with FRET peptide substrate containing the LPETG motif, minimal inhibitory concentration (MIC) test with two staphylococcal species to measure the antimicrobial efficacy of the new inhibitory molecule, and toxicity test using a normal mouse embryonic fibroblasts cell line NIH/3T3 to determine the cell growth IC50 inhibitory concentration.
Values are means ±SD (n = 5).

The subject of assay [2] is S. epidermidis. Description: MIC test, broth dilution micromethod. In kind it is cell-based. As to conditions: Staphylococcus epidermidis; 24 hours at 37 °C, complete inhibition of cell growth. The method, then: as §1
(§2) The MIC values of test compounds that inhibited cell growth of Gram-positive Staphylococcus aureus and S. epidermidis were determined by broth dilution micromethod. A series of solutions with a range from 0.1 µg/ml to 400 µg/ml were made in using a logarithmical phase culture with OD600 = 0.1 (corresponds to ∼1.2 x 10^8 CFU/ml in 96-well plate standard. The plate was incubated at 37 °C for 24 hours and growth was assayed with a microplate reader by monitoring the absorption at 600 nm. All experiments were done in triplicate, and repeated three times.
A general note: In broth dilution the organism is exposed to a series of concentrations in liquid medium.

The subject of assay [3] is Staphylococcus aureus. Description: MIC test, broth dilution micromethod. In kind it is cell-based. As to conditions: for MIC: Staphylococcus aureus, 24 hours at 37 °C, complete inhibition of cell growth, read-out: MIC, S.aureus. The procedure: as §1, §2
Assay [4] has as its system NIH/3T3 cells. Description: Cytotoxicity (MTT cell growth inhibition) test. In kind it is cell-based. As to conditions: Mus musculus, read-out: 50% NIH/3T3 cell growth inhibition concentration, (IC50). The method, then: as §1
The growth inhibitory effect of the newly synthesized compound was studied on NIH/3T3mouse fibroblast cell line. NIH/3T3 cells were seeded into 96-well microplates with initial density of 1x10^4 cells per well in DMEM culture medium with 10% FCS. After 24 hours of incubation, cells were exposed to a graded series of concentrations of chemical compounds for additional 48 hours. The cell medium was removed and 100 µl of fresh culture medium without phenol red and 1 mM MTT solution was added to each well. After 3 hours of incubation, an equal volume of 1% SDS-HCl solution was added and plates were incubated for additional 4 hours. Absorbance was measured at 570 nm and the data were fitted to a four parameter variable slope equation to determine the IC50 value. […]

In assay [5] the target is T2, SrtA (Staphylococcus aureus, UniProt Q2FV99).
T2 construct: expressed with an N-terminal deletion of 59 amino acid residues (SrtAΔNS9, residues 60-206); made in house
T2 sequence (Q2FV99 60-206): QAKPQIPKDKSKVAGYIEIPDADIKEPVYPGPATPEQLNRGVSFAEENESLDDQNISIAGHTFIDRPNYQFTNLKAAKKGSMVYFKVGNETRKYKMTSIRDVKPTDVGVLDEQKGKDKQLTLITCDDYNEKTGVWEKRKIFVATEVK
Put plainly: Binding to SrtA monitored by 2D [15N,1H]-HSQC NMR spectroscopy, with dialysis. As to conditions: 0.3 mM (1.0 equivalents) inhibitor, after dialysis against NMR sample buffer. An excerpt:
• Fig. 1 - represents the binding of a selected inhibitor N-(adamantan-1-yl)-2-(3-oxo-2,3-dihydro-1,2-benzothiazol-2-yl)acetamide to SrtA monitored by 2D [^15N,^1H]-HSQC NMR spectroscopy. (a) Spectrum of SrtA in absence of inhibitor. […] (a) SrtA active site after modification by inhibitor. The inhibitor (in cyan) and near-by side chains of SrtA are shown with sticks and labeled. Side chains are colored according to their type: hydrophobic in yellow, negatively charged in red, positively charged in blue and hydrophilic in grey. Hydrogens are omitted for clarity. […] (c) Molecular surface representation of SrtA in complex with inhibitor. It can be seen in the figure that the inhibitor occupies almost all volume of the substrate pocket, the majority of interactions are hydrophobic and hydrogen bond is at the R139.
Determination of the complex structure of selected inhibitor and sortase enzyme was performed by using the nuclear magnetic resonance (NMR) spectroscopy methods. The collected NMR data allowed to specify the structure of inhibitory complexes.
To verify that the selected inhibitor can react with a cysteine thiol (such as the SrtA active site C 184) we performed a reaction with cysteine in the NMR tube and observed the formation of a covalent adduct (Figure 2). The chemical structure of the product was verified using proton 1D and 2D NMR methods.

In brackets after ≈: the same amount, converted by molar mass. Where two headings read alike, the source gives them in different places.

T1 sequence (Q2FV99 60-206): as above

With `O=C(Cn1sc2ccccc2c1=O)NNC(=O)C12CC3CC(CC(C3)C1)C2` [N'-(2-(3-oxobenzo[d]isothiazol-2(3H)-yl)acetyl)adamantane-1-carbohydrazide], the IC50 in assay [1] was found to be 3.8 µM; in assay [4] (NIH3T3, 48 hours exposure, MTT, mean of three independent experiments ±SD) it was 12.1 µg/mL (≈ 31.4 µM). In addition, the MIC in assay [2] turned out to be 4 µg/mL (≈ 10.4 µM); in assay [3], 16 µg/mL (≈ 41.5 µM). For the same compound, the “MIC values of the new compound in comparison to the initial hit molecule” value in assay [3] (average over S. aureus and S. epidermidis) is on record as approximately 10 fold.

On to `O=C(Cn1sc2ccccc2c1=O)NC12CC3CC(CC(C3)C1)C2` [N-(adamantan-1-yl)-2-(3-oxo-2,3-dihydro-1,2-benzothiazol-2-yl)acetamide], for which the IC50 is 6.2 µM in assay [1] and 1.3 µg/mL (≈ 3.8 µM) in assay [4] (NIH3T3, 48 h). For the same compound, the MIC in assay [2] is 0.5 µg/mL (≈ 1.46 µM); in assay [3] it was 1 µg/mL (≈ 2.92 µM). Moreover, the “binding of inhibitor to SrtA (reversibility)” value in assay [5] is listed as “irreversibly”.

(Values after EP2875815A1, “N'-(2-(3-oxobenzo[d]isothiazol-2(3h)-yl)acetyl)adamantane-1-carbohydrazide as a novel inhibitor for staphylococcus aureus sortase a” (Latvian Biomedical Research and Study Centre, priority 2013, dated 2015).)
